Consider 39 compounds from US20180207228A1, “PEPTIDE COMBINATIONS AND USES THEREOF FOR TREATING GRASS ALLERGY” (ALK-Abelló A/S, priority 2015, published 2018).

Where no end group is shown, it is not given here.

In experiment [1] the test system is grass pollen allergic donor derived TCL-03 lines. As to the kind of experiment: Extended cross-reactivity study, proliferation on TCL03 DK1+DK2 (Study XR2), scoring. On the set-up: Cross-reactivity score: scale not given here. Conditions: for cross-reactivity of homologue / cross-reactivity score of homologue: 2 μg/ml, 20 donors; for cross-reactivity score of homologue: score 0 to 7. Format: cell-based, human.

The subject of experiment [2] is allergen specific T cells. As to the kind of experiment: T cell proliferation assay (72 h) on donor derived T cell lines (TCL02/TCL03). Conditions: 2 μg/ml; for donor coverage of homologue peptide compared with native Phleum peptide: TCL-02 DK-2, 21 donors. Format: cell-based, human. An excerpt: Isolated PBMCs (peripheral blood mononuclear cells) obtained from the donors described in Example 2 were CD8 depleted and the T cell lines were established by stimulating the cultures with nPhl p1, mix of nPhl p 2 and […] 5 and […] established for each of the donors tested by stimulating with the mixture of above listed allergens. Grass allergic donors were recruited (cohort DK1 including 30 grass allergic individuals, DK2 including 24 grass allergic individuals and US1 including 15 grass allergic individuals). PBMCs were isolated from freshly drawn heparinized blood by gradient centrifugation on lymphoprep (Nycomed, Norway), washed twice and re-suspended in RPMI 1640 medium with HEPES and ultraglutamine (Cambrex, Belgium) supplemented with 5% v/v human AB-serum (Cambrex, Belgium), 100 units/ml penicillin, and 0.1 mg/ml streptomycin (Sigma, St Louis, USA) (referred to as 5% AB-medium). Aliquots of the isolated PBMCs were frozen and were thawed later to stimulate the T cell lines. Additionally either fresh or thawed PBMCs were used as antigen presenting cells (APCs) in the proliferation assay as described later. In some cases the PBMCs were freezed at this stage and thawed later on to continue the experiment as described in the following. The isolated PBMCs (fresh or thawed) were CD8 depleted by MACS magnetic depletion according to the manufacturer's instructions (Miltenyi Biotec, Bergisch Gladbach, Germany). On day 0 the CD8-depleted PBMCs (2×10^6/ml) were stimulated in 1 ml bulk cultures in AB medium in 24 well plates (Nunc, Denmark) with the mixture of natural allergens: nPhl p 1 (0.5 μg/ml), mix of […]). […] On day 14 cells were harvested to obtain T cell line generation 01 (referred to as TCL01). Restimulation of T cell lines were performed in AB-medium with the thawed autologous PBMCs (10^6/well, irradiated 2500 Rad), the above mixture of natural allergens (concentration as mentioned above), and PHA-P (0.5 μg/ml, Difco, Detroit, Mich., USA). rIL-2 was added at day 17, 18 and 19. On day 24 cells were harvested to obtain T cell line generation 02 (referred as TCL02). T cells were isolated, washed, counted and used for T cell proliferation assay as described later. Remaining cells were frozen for later thawing and re-stimulations. The T cell line generation 2 (TCL02) were thawed and were re-stimulated with allogeneic Epstein Bar Virus transformed lymphoblastoid cell lines (EBV) B cells (JY cells, 10^5/well, irradiated 3500 Rad), allogeneic PBMCs (10^6/well, irradiated 2500 Rad), and 0.5 μg/ml PHA-P and subsequent addition of rIL-2 at days 3-5 to generate T cell line generation 03 (referred to as TCL03). […] To summarize ELISpot experiments were carried out at day 14 (with TCL01) and proliferation assay on either day 24 (with TCL02) or at day 34 (with TCL03). […] To ensure that all T cell epitopes regions from the major and intermediate grass allergens of the grass were identified T cell screening was carried out with either overlapping peptides or selected peptides. […] These were overlapping 20-mer peptides spanning the entire full length amino acid sequence of […] and selected high binder peptides from Phl p 4 were tested. Additionally 21, 15 mer peptides were tested which were derived from various group 1 and 5 allergens. Also, 67 peptides from homologous grass allergens were tested. Finally some reference peptides and mixes thereof were also tested. The 15-mer peptides were selected on the basis of predicted and measured promiscuous HLA binding and of sequence homology between known proteins sequences from the relevant pooideae grasses and the Bermuda grass. […] To get comprehensive data from all the donors the peptides were tested in both Fluorospot/Elispot (day 14, TCL01) and proliferation (day 24, TCL02).

Setting [3] is: homologue of peptide 217 (Phl p 3), Table 45.
[4] abbreviates: homologue of peptide 238 (Phl p 5), Table 48.
[5] abbreviates: homologue of peptide 207 (Phl p 1), Table 43.
The mark [6] stands for this setting: homologue of peptide 285, Table 50.
[7] abbreviates: homologue of peptide 206 (Phl p 1), Table 42.
[8] abbreviates: homologue of peptide 211 (Phl p 1), Table 44.
Setting [9] is: homologue of peptide 205 (Phl p 1), Table 41.

Consider `CC[C@H](C)[C@H](NC(=O)[C@H](CC(N)=O)NC(=O)[C@H](CC(C)C)NC(=O)[C@@H](NC(=O)[C@H](CC(C)C)NC(=O)[C@@H](NC(=O)[C@H](CCCCN)NC(=O)[C@H](C)NC(=O)[C@H](CC(=O)O)NC(=O)[C@H](CO)NC(=O)CN)[C@@H](C)O)C(C)C)C(=O)N[C@@H](CCCCN)C(=O)N[C@@H](Cc1ccc(O)cc1)C(=O)N[C@H](C(=O)N[C@@H](CCCNC(=N)N)C(=O)N1CCC[C@H]1C(=O)NCC(=O)N[C@@H](CC(=O)O)C(=O)N[C@H](C(=O)N[C@@H](CC(C)C)C(=O)O)[C@@H](C)O)[C@@H](C)O` [compound 328], for which the cross-reactivity of homologue entry in experiment [1] was “considerable cross-reactivity”. This compound displayed a Cross-reactivity score in experiment [1] (setting [3]) of 5.

Compound `CC[C@H](C)[C@H](NC(=O)[C@H](Cc1ccccc1)NC(=O)[C@H](CCCCN)NC(=O)[C@H](Cc1ccc(O)cc1)NC(=O)[C@@H](NC(=O)[C@H](CCC(=O)O)NC(=O)[C@H](Cc1ccc(O)cc1)NC(=O)[C@H](C)NC(=O)CNC(=O)[C@H](C)NC(=O)[C@@H](NC(=O)[C@@H](N)CO)[C@@H](C)O)[C@@H](C)O)C(=O)N1CCC[C@H]1C(=O)N[C@@H](CO)C(=O)N[C@@H](CC(C)C)C(=O)N[C@@H](CCC(=O)O)C(=O)N[C@@H](C)C(=O)N[C@@H](C)C(=O)N[C@H](C(=O)N[C@@H](CCCCN)C(=O)O)C(C)C` [compound 363] registered a Cross-reactivity score in experiment [1] (setting [4]) of 5.

As to `CC[C@H](C)[C@H](NC(=O)[C@H](Cc1ccccc1)NC(=O)[C@H](CCCCN)NC(=O)[C@H](Cc1ccc(O)cc1)NC(=O)[C@@H](NC(=O)[C@H](CCC(=O)O)NC(=O)[C@H](Cc1ccc(O)cc1)NC(=O)[C@H](C)NC(=O)CNC(=O)CNC(=O)[C@@H](NC(=O)[C@@H](N)CO)[C@@H](C)O)[C@@H](C)O)C(=O)N1CCC[C@H]1C(=O)N[C@@H](CO)C(=O)N[C@@H](CC(C)C)C(=O)N[C@@H](CCC(=O)O)C(=O)N[C@@H](C)C(=O)N[C@@H](C)C(=O)N[C@H](C(=O)N[C@@H](CCCCN)C(=O)O)C(C)C` [compound 405], in experiment [1] (setting [4]), the Cross-reactivity score is on record as 5.

`CC[C@H](C)[C@H](NC(=O)[C@H](Cc1ccccc1)NC(=O)[C@@H](N)CCCCN)C(=O)N1CCC[C@H]1C(=O)N[C@@H](C)C(=O)N[C@@H](CC(C)C)C(=O)N[C@@H](CCC(=O)O)C(=O)N[C@@H](C)C(=O)N[C@@H](C)C(=O)N[C@H](C(=O)N[C@@H](CCCCN)C(=O)N[C@@H](CCC(N)=O)C(=O)N[C@@H](CO)C(=O)N[C@@H](Cc1ccc(O)cc1)C(=O)N[C@@H](C)C(=O)N[C@@H](C)C(=O)N[C@H](C(=O)N[C@H](C(=O)N[C@@H](C)C(=O)N[C@H](C(=O)O)[C@@H](C)O)C(C)C)[C@@H](C)O)C(C)C` [compound 409] gave a Cross-reactivity score in experiment [1] (homologue of peptide 239 (Phl p 5), Table 49) of 7.

For the compound AGELELKFRRVKSEYPEGTK-OH [compound 385], in experiment [1] (setting [5]), the Cross-reactivity score is 1.

On to AGELELQFRRVKSKYPDGTK-OH [compound 383], for which the cross-reactivity of homologue result in experiment [1] is on record as “considerable cross-reactivity”. In experiment [1] (setting [5]), this compound showed a Cross-reactivity score of 6.

Consider AGELELQFRRVKSKYPEGTK-OH [compound 382], for which the cross-reactivity of homologue entry in experiment [1] is “considerable cross-reactivity”. The compound further gave a Cross-reactivity score in experiment [1] (setting [5]) of 3.

As for AGELTLQFRRVKSKYPSGTK-OH [compound 318], the Cross-reactivity score in experiment [1] (setting [5]) came to 0.

As for AYESYKFIPTLEAAVKQAYA-OH [compound 413], the Cross-reactivity score in experiment [1] (setting [6]) is 6.

Regarding AYQSYKFIPALEAAVKQSYA-OH [compound 416], the “cross-reactivity score of homologue” value in experiment [1] is on record as 1. Further, the Cross-reactivity score in experiment [1] (setting [6]) worked out at 1.

ERDFLTSLTKDIPPRQLYAK-OH [compound 398]: in experiment [1], the “cross-reactivity score of homologue” value was 1. This compound also yielded a Cross-reactivity score in experiment [1] (homologue of peptide 222 (Phl p 4), Table 46) of 1.

Compound GEEDKLRKAGELMLQFRRVK-OH [compound 376] gave a Cross-reactivity score in experiment [1] (setting [7]) of 0.

In experiment [1] (setting [7]), GEEEKLRKAGIIDMKFRRVK-OH [compound 381] gave a Cross-reactivity score of 0.5.

For the compound GEEENVRGAGELELQFRRVK-OH [compound 379], the Cross-reactivity score in experiment [1] (setting [7]) stood at 1.

Regarding GEEQKLRSAGELELKFRRVK-OH [compound 380], the Cross-reactivity score in experiment [1] (setting [7]) is given as 0.5.

For GEEQKLRSAGELELQFRRVK-OH [compound 377], in experiment [1] (setting [7]), the Cross-reactivity score is on record as 2.

As to GLNDKLRHYGIFDLEFRRVR-OH [compound 378], the Cross-reactivity score in experiment [1] (setting [7]) came out at 0.

For the compound GSDPKKLVLDIKYTRPGDTL-OH [compound 397], in experiment [1] (setting [3]), the Cross-reactivity score is 1.

In experiment [1] (setting [4]), STGGAYESYKFIPTLEAAVK-OH [compound 404] displayed a Cross-reactivity score of 5.

In turn, STGGAYQSYKFIPALEAAVK-OH [compound 406] had a Cross-reactivity score in experiment [1] (setting [4]) of 4.

Compound TDMNYEQIAAYHFDLAGTAF-OH [compound 370] gave a Cross-reactivity score in experiment [1] (homologue of peptide 204 (Phl p 1), Table 40) of 2.

VDKIDAAYKIAATAANAAPA-OH [compound 399] showed a Cross-reactivity score in experiment [1] (homologue of peptide 235 (Phl p 5), Table 53) of 5.

In turn, VDKIDAAYKIAATAANAAPAN-OH [compound 417] displayed a Cross-reactivity score in experiment [1] (homologue of peptide 286 (Phl p 5), Table 52) of 7.

As to WGAIWRIDPPKPLKGPFTIR-OH [compound 391], in experiment [1] (setting [8]), the Cross-reactivity score is listed as 0.5.

As for WGAIWRIDTPDKLTGPFTVR-NH2 [compound 258], in experiment [2] (TCL03-DK1 and DK2, 27 donors), the “T cell coverage of modified peptide compared to the parent peptide” value is recorded as “markedly increased T cell coverage”.

In experiment [1] (setting [8]), WGAIWRKDSDKPIKFPVTVQ-OH [compound 396] came in with a Cross-reactivity score of 0.5.

WGAIWRMDTPKALVPPFSIR-OH [compound 394] yielded a Cross-reactivity score in experiment [1] (setting [8]) of 1.

Take WGAIWRVDTPDKLTGPFTVR-OH [compound 392]: the cross-reactivity of homologue result in experiment [1] was “considerable cross-reactivity”. In experiment [1] (setting [8]), this compound showed a Cross-reactivity score of 5.

Consider WGAVWRIDTPDKLTGPFTVR-OH [compound 309], for which the “donor coverage of homologue peptide compared with native Phleum peptide” value in experiment [2] was “low in donor coverage”.

With WGAVWRIDTPDKLTGPFTVR-OH [compound 393], the cross-reactivity of homologue result in experiment [1] was “considerable cross-reactivity”. Besides, the Cross-reactivity score in experiment [1] (setting [8]) was 4.

For WGSIWRVDTPDKLTGPFTVR-OH [compound 395], the cross-reactivity of homologue result in experiment [1] was “considerable cross-reactivity”. This compound also had a Cross-reactivity score in experiment [1] (setting [8]) of 3.

In turn, YGIFDLEFRRVRSKYQGGQK-OH [compound 384] yielded a Cross-reactivity score in experiment [1] (setting [5]) of 0.5.

With YHFDLAGTAFGAMAKKGEEE-OH [compound 375], the cross-reactivity of homologue result in experiment [1] is “very high reactivity”. The Cross-reactivity score in experiment [1] (setting [9]) is recorded as 7.

Turning to YHFDLSGHAFGSMAKKGEEE-OH [compound 373], the cross-reactivity of homologue entry in experiment [1] was “very high reactivity”. Further, the Cross-reactivity score in experiment [1] (setting [9]) was determined as 6.

For the compound YHFDLSGHAFGSMAKKGEEQ-OH [compound 303], the “donor coverage of homologue peptide compared with native Phleum peptide” value in experiment [2] is on record as “comparable to the native peptides”.

In the case of YHFDLSGHAFGSMAKKGEEQ-OH [compound 372], the cross-reactivity of homologue entry in experiment [1] is listed as “very high reactivity”. Also, the Cross-reactivity score in experiment [1] (setting [9]) is 7.

As to YHFDLSGKAFGAMAKKGEED-OH [compound 371], in experiment [1] (setting [9]), the Cross-reactivity score came to 2.

For the compound YHFDLSGKAFGAMAKKGEEQ-OH [compound 374], the Cross-reactivity score in experiment [1] (setting [9]) stood at 3.

With YHFDLSGKAFGAMAKKGQED-OH [compound 316], the “donor coverage of homologue peptide compared with native Phleum peptide” value in experiment [2] is reported as “comparable to the native peptides”.
